{"source": "patent US20110165611A1", "about": "“DUAL MODALITY DETECTION OF APOPTOSIS” (priority 2008, published 2011)", "key": {"[1]": {"assay": "Stability of DEVD profluorophore 2 in PBS and serum-containing culture medium", "assay_type": "physicochemical", "conditions": "10 μM in PBS, 1 μM in medium, room temperature, 8 h", "procedure": "Stability of DEVD profluorophore 2 in PBS and serum-containing culture medium For the stability assay, the generation of fluorescence was recorded continuously at room temperature for 8 h for a solution of 2 (10 μM) or fluorescein diacetate (10 μM) in 3 mL of PBS using a Fluorolog-3 fluorometer (Jobin Yvon, Edison, N.J.) at λex=496 nm. The procedure was repeated for a solution of 2 (1 μM) or fluorescein diacetate (1 μM) in Dulbecco's modified Eagle medium supplemented with 10% (v/v) fetal bovine serum. Cleavage of amide bond linking R110 to DEVD or hydrolysis of fluorescein diacetate would result in increased fluorescence signal."}, "[2]": {"assay": "Stability of 99mTc-chelate 4, ligand challenge with cysteine and histidine", "assay_type": "physicochemical", "conditions": "0.01 M cysteine or histidine in PBS, 37° C., 1 and 5 h", "procedure": "A large excess of competing donors cysteine and histidine was used as a means of evaluating the complex's tendency to undergo transchelation. […] The samples were incubated at 37° C. and analyzed by HPLC at 1- and 5-h intervals."}, "apoptotic liver": {"test_system": "apoptotic liver", "assay": "Gamma imaging in murine liver apoptosis model (anti-Fas)", "assay_type": "in vivo, mouse", "conditions": "300 μCi i.v., imaging 120 min after injection", "excerpt": "We used a murine liver apoptosis model to evaluate whether chelate 4 could be used to image apoptosis in vivo. F. G. Blankenberg, J. F. Tait, R. E. Davis, L. Naumovski, K. Ohtsuki, S. Kopiwoda, M. J. Abrams, M. Darkes, R. C. Robbins, H. T. Maecker, H. W. Strauss, Proc. Natl. Acad. Sciences USA 1998, 95, 6349-6354; F. G. Blankenberg, P. D. Katsikis, J. F. Tait, R. E. Davis, L. Naumovski, K. Ohtsuki, S. Kopiwoda, M. J. Abrams, H. W. Strauss, J. Nucl. Med. 1999, 40, 184-191. Male Balb/c mice (10-12 weeks old, weight 20-25 g) were injected intravenously with an anti-Fas monoclonal antibody (10 μg/mouse) to induce apoptosis in the liver. […] Radionuclide imaging was acquired 120 min after the injection of 4.\nGamma Imaging and Biodistribution For γ-imaging study, two male Balb/c mice (10-12 weeks old, weight 20-25 g) (Charles River, Wilmington, Mass.) were injected intravenously with a purified anti-Fas monoclonal antibody (10 μg/mouse) (Pharmingen, San Diego, Calif.). Two mice injected with PBS were used as a control group. […] The organs of interest were excised and weighed, and radioactivity was counted in a gamma counter. The stomach and intestines were emptied of food contents prior to radioactivity measurements. The percentage of injected dose per gram (% ID/g) was calculated by dividing the % ID/organ by the weight of the tissue."}, "DLD1 cells [3]": {"test_system": "DLD1 cells", "assay": "Cellular uptake and efflux of 99mTc-chelate 4, radiotracer analysis", "assay_type": "cell-based, human", "conditions": "for Efflux / retention in DLD1 cells after wash: 2 h loading, fresh medium 60-180 min", "procedure": "The medium was replaced with 2 mL of medium containing radiotracers 99 mTc-chelate 4 [Ac-DEVD-R110-D-SAAC-99mTc(CO)3] (˜40 μCi/mL) or its fragment R110-D-SAAC-99 mTc(CO)3 (˜40 μCi/mL). The cells were subsequently incubated for 60 and 120 min before the monolayers were scraped, transferred into 5-mL tubes. The tubes were briefly vortexed and 100 μL DLD1 cell suspension were transferred into a microcentrifuge tube containing 500 μL of a 75:25 mixture of silicon oil (density 1.05, Aldrich) and mineral oil (density 0.872, Acros). The mixture was centrifuged at 14,000 rpm for 5 min. After freezing the tubes with liquid nitrogen, the bottom tips containing the cell pellet were cut off. The cell pellets and the supernatants were counted with a γ-counter (Perkin-Elmer). The protein content in 100 μl cell suspension was quantified in a separate experiment using the Bio-Rad protein assay kit according to the manufacturer's protocol. For efflux study, cells were incubated with each radiotracer for 2 hrs, then the medium was removed and the cells washed with medium twice. The cells were incubated with 2 mL of fresh medium for additional 60 min, 120 min, and 180 min. The radioactivity in the cell pellets and media were counted as described before. Activity ratios of the cell pellet to medium ([cpm/g protein in pellet]/[cpm/g medium]) were calculated and plotted against time. The experiments were performed in pentaplicate."}, "[4]": {"test_system": "activated caspase 3 in liver", "assay": "Fluorescence microscopic analysis of liver from mice injected 99mTc-chelate 4", "assay_type": "in vivo, mouse", "conditions": "anti-Fas-treated vs PBS-treated liver, 2 h after i.v. injection", "procedure": "The tissue slices were fixed using 4% paraformaldehyde for 15 min at room temperature. After PBS washing, the samples were blocked with 10% goat serum at 37° C. for 30 min, followed by 1 μg/mL of rabbit anti-mouse-activated caspase 3 monoclonal antibody (R&D Systems, Minneapolis, Minn.) at 4° C. overnight. Texas red-conjugated goat anti-rabbit IgG (1:1000, Invitrogen, Eugene, Oreg.) was used as second antibody at room temperature for 1 h. Cell nuclei were counterstained with 3 μg/mL of Hoechst 33342 at room temperature for 5 min. The slices were mounted and visualized under a Zeiss Axio Observer.Z1 fluorescence microscope (Carl Zeiss MicroImaging GmbH, Göttingen, Germany)."}, "Human caspase 3": {"molecular_target": "T1, Human caspase 3 (Homo sapiens, UniProt P42574)", "T1 construct": "purchased Sigma-Aldrich", "T1 sequence (P42574 29-175 limits assumed)": "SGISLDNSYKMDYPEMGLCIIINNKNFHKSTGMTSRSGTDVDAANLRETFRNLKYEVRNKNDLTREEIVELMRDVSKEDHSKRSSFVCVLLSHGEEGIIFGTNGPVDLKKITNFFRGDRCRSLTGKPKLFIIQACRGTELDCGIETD", "T1 sequence (P42574 176-277 limits assumed)": "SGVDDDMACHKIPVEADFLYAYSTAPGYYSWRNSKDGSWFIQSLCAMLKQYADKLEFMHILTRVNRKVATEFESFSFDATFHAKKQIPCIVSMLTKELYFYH", "assay": "Cleavage by caspase 3 (fluorescence emission and LC-MS)", "assay_type": "biochemical", "procedure": "Cleavage by caspase 3 Human caspase 3 (Sigma-Aldrich) (5 μg) was reconstituted with 50 μL of deionized water (100 μg/mL) and stored in aliquots at −70° C. Before its use, an aliquot of reconstituted caspase 3 was thawed and diluted 200-fold in 1× assay buffer to a final concentration of 0.5 μg/mL. Five microliters of diluted caspase 3 was then added into a solution of 2 (22 μM) in 3 mL 1× assay buffer (20 mM HEPES [pH 7.4], with 2 mM ethylenediaminetetraacetic acid, 0.1% 3-[(3-cholamidopropyl)dimethylammonio]-1-propanesulfonate, and 5 mM dithiothreitol). The reaction mixture was incubated in cuvet in dark at room temperature and the emission spectra were recorded at intervals of 0, 10, 20, 30 and 60 min on a Fluorolog 3 fluorometer (HORIBA, Edison, N.J.) with an excitation wavelength (λex) of 496 nm.\nTo further confirm cleavage of 2 by caspase 3, 5 μL of caspase 3 (0.5 μg/mL) was mixed with 10 μL of 1 mM solution of 2 dissolved in 1× assay buffer. After 1 h at room temperature, the reaction mixture was injected into LC-MS system."}, "DLD1 cells [5]": {"test_system": "DLD1 cells", "assay": "Cellular uptake and efflux of DEVD peptides 2 and 3, fluorescence analysis", "assay_type": "cell-based, human", "procedure": "Cellular uptake and efflux of DEVD peptides 2 and 3—fluorescence analysis DLD1 cells were seeded (1×10^4/well) in a 96-well plate 1 day before experiments. The DLD1 cells were sequentially treated with 100 μL of the following agents at 37° C.: (A) 25 μM each DEVD conjugate for 2 h; (B) 25 μM each DEVD conjugate for 2 h followed by TRAIL (150 ng/L) for 2 h; (C) 25 μM each DEVD conjugate for 2 h, drug-free culture medium for 2 h, and TRAIL (150 ng/L) for 2 h; and (D) 25 μM each DEVD conjugate for 2 h, drug-free culture medium for 24 h, and TRAIL (150 ng/L) for 2 h. The cells were washed with PBS twice before each medium replacement. After treatment, the cells were lysed with 100 μL of lysis buffer (Sigma) for […] at room temperature. The fluorescence intensity of cleaved R110 was measured using a TECAN microplate reader (San Jose, Calif.). The measurement parameters were as follows: excitation wavelength, 485 nm; emission wavelength, 520 nm; excitation and emission bandwidth, both 12.0 nm; gain, 50; number of flashes, 10; and integration time, 30 μs. The measurements were performed 4 times each.\nUptake and release kinetics of DEVD peptides in normal and apoptotic cells. DLD-1 cells were seeded (1×10^4/well) in 96 well plate 1 days before experiment. […] The fluorescent intensity of cleaved R110 was measured using TECAN microplate reader (San Jose, Calif.). […]"}, "DLD1 cells [6]": {"test_system": "DLD1 cells", "assay": "Fluorescence microscopy of viable and TRAIL-treated apoptotic DLD1 cells", "assay_type": "cell-based, human", "conditions": "for Effect on apoptosis of DLD1 cells (annexin V staining): annexin V-Alexa Fluor 594 staining", "quoted_text": "Fluorescence Microscopy Human epithelial cells from colorectal adenocarcinoma (DLD1) were seeded (1×10^4/well) in a 96-well plate 1 day before experiments. Apoptosis was induced by treating cells with TRAIL (100 μL, 250 ng/mL) for 2 h at 37° C. Both apoptotic and viable cells were incubated with 100 μL of 2 or 3 in (final concentration, 50 μM) for 2 h at 37° C. The cells were washed and stained with Annexin V-Alexa Fluor 594. After washing with PBS, the cells were transferred into Lab-Tek II chambered cover glass and visualized under Olympus Fluoview FV1000 confocal laser scanning microscope (FV1-ASW, Olympus, Melville, N.Y.) equipped with fluorescein isothiocyanate (wavelength: 495/519 nm) and Texas red filters (wavelength: 589/615 nm). In separate wells, TRAIL was added in the presence of 50 μM of Ac-DEVD-CHO to inhibit caspase 3 activity.\nFluorescence microscopy Human epithelial cells from colorectal adenocarcinoma (DLD1) were obtained from American Type Cell Culture (Manassas, Va.). Cells were seeded (1×10^4/well) in a 96-well plate (Corning, Lowell, Mass.) supplemented with RPMI-1640 medium plus 10% fetal bovine serum (FBS) 1 day before experiments. Apoptosis was induced by treating cells with TRAIL (100 μL, 250 ng/mL) for 2 h at 37° C. The treated apoptotic cells were collected in conical tubes, while the untreated viable cells were trypsinized. The cells were centrifuged at 3000 rpm for 5 mM. The pellets were washed with RPMI 1640 without phenol red. Both apoptotic and viable cells were incubated with 100 μL, of 2 or 3 in RPMI 1640 without phenol red (final concentration, 50 μM) for 2 h at 37° C. The cells were washed and resuspended in annexin-binding buffer (10 mM HEPES, 140 mM NaCl, and 2.5 mM CaCl2 [pH 7.4]). Five microliters of Alexa Fluor 594-annexin V conjugate was added into each 100 μl of cell suspension, and the cells were incubated for 15 min at room temperature. […]"}, "liver": {"test_system": "liver", "assay": "Radio-HPLC analysis of liver extracts from mice injected 99mTc-chelate 4", "conditions": "mouse, in vivo", "procedure": "Two hours after intravenous injection of 4 (1 mCi, 80 μg, 0.2 mL) into a mouse treated with […] and a mouse treated with PBS 2 h prior to the injection of the radiotracer, mice were killed and livers were removed and ground at 4° C. using a Dounce homogenizer (Polytron, […], Switzerland) in 5 mL of acetonitrile/methanol (3:1, v/v). After sequential high-speed centrifugation (100,000 g for 20 min) to remove cellular debris and insoluble proteins, the supernatants were concentrated and injected into the radio-HPLC system (condition: solvent A, 0.01 M NH4OAc in water; solvent B, acetonitrile; gradient: 0-80% B in A over 40 min, flow rate 1.0 mL/min, C18 4.6×250 mm, 5-μm column)."}}, "note": "“Also recorded” adds a separate entry of the source.", "data": [{"molecule": "CC(=O)Oc1ccc2c(c1)Oc1cc(OC(C)=O)ccc1C21OC(=O)c2ccccc21", "note": "[fluorescein diacetate, reference compound]", "values": [{"measurement": "Stability in PBS and culture medium with 10% FBS (generation of fluorescence)", "setting": "[1]", "result": "relatively rapid hydrolysis in both solutions"}]}, {"molecule": "Ac-DEVD-R110-D-SAAC-^99mTc(CO)3 [^99mTc-chelate 4]", "values": [{"measurement": "Transchelation under cysteine/histidine challenge", "setting": "[2]", "result": "No transchelation was observed"}, {"measurement": "Liver uptake, anti-Fas-treated vs PBS-treated mice (radionuclide imaging)", "setting": "apoptotic liver", "result": "Significantly higher uptake"}, {"measurement": "Uptake in DLD1 cells (cell pellet to medium activity ratio)", "setting": "DLD1 cells [3]; 1-2 h of incubation, compared with fragment", "result": "accumulated significantly more in the cells than its fragment did; also recorded: significantly higher uptake in DLD1 cells"}, {"measurement": "Efflux / retention in DLD1 cells after wash", "setting": "DLD1 cells [3]", "result": "washed out of the cells over time; also recorded: gradually washed out"}, {"measurement": "Cleavage of fluorogenic probe in liver sections", "setting": "[4]", "result": "shown only in the apoptotic liver but not in the normal liver"}]}, {"molecule": "Ac-DEVD-R110-D-SAAC-Fmoc [Compound 2]", "values": [{"measurement": "Fluorescence change after introduction of caspase 3", "setting": "Human caspase 3; 22 μM, over 60 min, λex 496 nm", "result": "large increase in fluorescence"}, {"measurement": "Fluorescence emission without exposure to caspase 3", "setting": "Human caspase 3; 22 μM, λex 496 nm, room temperature", "result": "near-baseline emission"}, {"measurement": "Site of hydrolytic cleavage by caspase 3 (LC-MS)", "setting": "Human caspase 3; 1 h at room temperature", "result": "occurred selectively at the amide bond between DEVD and R110"}, {"measurement": "Degradation on incubation with caspase 3", "setting": "Human caspase 3; fluorescence increase and LC-MS", "result": "completely degraded"}, {"measurement": "Uptake in viable tumor cells: reversibility (efflux in drug-free medium 2 or 24 h)", "setting": "DLD1 cells [5]; 25 μM 2 h, then drug-free medium, then TRAIL", "result": "reversible process"}, {"measurement": "Increase of fluorescence intensity upon TRAIL treatment", "setting": "DLD1 cells [5]; 25 μM 2 h followed by TRAIL (150 ng/mL) 2 h vs no TRAIL", "result": 27, "unit": "fold"}, {"measurement": "Stability in PBS and culture medium with 10% FBS (generation of fluorescence)", "setting": "[1]", "result": "stable in both PBS and culture medium supplemented with serum; also recorded: remarkable stability in both PBS and culture medium supplemented with serum"}]}, {"molecule": "Ac-DEVD-CHO", "values": [{"measurement": "Effect of caspase 3 inhibitor on fluorescent signal from 3", "setting": "DLD1 cells [6]; 50 μM Ac-DEVD-CHO with TRAIL", "result": "significantly reduced the fluorescent signal from 3"}, {"measurement": "Effect on apoptosis of DLD1 cells (annexin V staining)", "setting": "DLD1 cells [6]", "result": "did not inhibit the apoptosis of DLD1 cells"}]}, {"molecule": "R110-D-SAAC-^99mTc(CO)3", "values": [{"measurement": "Permeability to plasma membrane compared with parent substrate", "setting": "DLD1 cells [3]", "result": "less permeable to plasma membrane"}, {"measurement": "Efflux / retention in DLD1 cells after wash", "setting": "DLD1 cells [3]", "result": "trapped in the cells"}, {"measurement": "Retention of degradation product in liver", "setting": "liver", "result": "retained in the apoptotic liver in its intact form"}]}, {"molecule": "TRAIL: tumor necrosis factor-related apoptosis-inducing ligand, recombinant human (protein, UniProt P50591 1-281, looked up) Tumor necrosis factor ligand …: MAMMEVQGGPSLGQTCVLIVIFTVLLQSLCVAVTYVYFTNELKQMQDKYSKSGIACFLKEDDSYWDPNDEESMNSPCWQVKWQLRQLVRKMILRTSEETISTVQEKQQNISPLVRERGPQRVAAHITGTRGRSNTLSSPNSKNEKALGRKINSWESSRSGHSFLSNLHLRNGELVIHEKGFYYIYSQTYFRFQEEIKENTKNDKQMVQYIYKYTSYPDPILLMKSARNSCWSKDAEYGLYSIYQGGIFELKENDRIFVSVTNEHLIDMDHEASFFGAFLVG", "values": [{"measurement": "Effect on apoptosis of DLD1 cells (annexin V staining)", "setting": "DLD1 cells [6]", "result": "induced significant apoptosis"}]}]}
